Laboratory results published in US6265445A, “Antiarrhythmic compounds” (priority 1997, dated 2001).
Counter-ions that a name gives are not always drawn. Like-named read-outs stand apart in the source and are kept apart here.

Assays:
[1] = test system: right ventricular papillary muscle of dogs; assay: Intracellular microelectrode technique: action potential parameters, ventricular papillary muscle; parameters: species or system mongrel dogs; details: for Trecovery (recovery time constant of Vmax): Gy: kinetics of rapid restoration; for effect on duration of the action potential (in words) / effect on Vmax (in words): concentrations of Table 2; for effect on Vmax (in words): rapid recovery kinetics
Experimental: The method used is essentially in agreement with the method of Papp et al. [J. Cardiovascular Pharmacol. Ther. 1, 287-296 (1996)].
Right ventricular papillary muscle and Purkinje's fibres were prepared from the hearts of mongrel dogs (weighing 5 to 10 kg each). The preparations were placed into an organ bath (37° C.) containing modified Tyrode's nutrient medium. The preparations were excited by a basal frequency of 1 Hz. During the experiments, the frequency of stimulation was varied under broad limits by a computer-guided stimulator. The intracellular action potentials were registered by using glass capillary microelectrodes filled with 3 N potassium chloride solution (standard intracellular microelectrode techniques). The resting potential (RP), the amplitude of the action potential (APA) as well as the duration of the action potential (APD) were measured by using an IBM 386 compatible computer by means of an own-developed software. The compounds under test were directly added into the organ bath after dilution of the stock solutions according to the final concentrations desired. The effects of the compounds were observed after an incubation time of 30 to 40 minutes.

[2] = test system: isolated right ventricular trabecule of dog heart; assay: Extracellular electrophysiological measurements: impulse conduction time and effective refractory period; parameters: species or system mongrel dogs; details: for activation at 2 µM / activation at 10 µM: Canis lupus familiaris; for effect on effective refractory period (in words) / effect on impulse conduction (in words): concentrations of Table 1
Experimental: Right ventricular trabecules were prepared from the heart of mongrel dogs (weighing 5 to 10 kg each). The surviving heart pieces were placed into an organ bath (37° C.) containing modified Tyrode's nutrient medium and excited by point stimulation with a basal frequency of 1 Hz. Extracellular bipolar platinum electrodes were placed on the surface of the preparations, by means of which the propagation of the superficial potentials were registered; thus, the determination of the time of impulse conduction or the rate of impulse conduction, respectively, and the effective refractory period (ERP) became possible. During our experiments,the frequency of stimulation was temporarily varied from 0.5 Hz up to 3 Hz. The tested compounds were directly added to the organ bath after dilution of the stock solution according to the desired final concentration.

[3] = 1 Hz, read-out: Prolongation (%) of ERP
[4] = 1 Hz, read-out: Prolongation (%) of impulse conduction time
[5] = 3 Hz, read-out: Prolongation (%) of ERP
[6] = 3 Hz, read-out: Prolongation (%) of impulse conduction time

Compound | effect on duration of the action potential (in words) [1] | effect on Vmax (in words) [1] | APA (amplitude of the action potential) ([1]; 5 μM) [mV] | APD50 (time of 50% repolarization) ([1]; 5 μM) [ms] | APD90 (time of 90% repolarization) ([1]; 5 μM) [ms] | RP (resting potential) ([1]; 5 μM) [mV] | Recovery Ampl ([1]; 5 μM) [V/s] | Recovery Ampl/Plateau ([1]; 5 μM) | Recovery Plateau ([1]; 5 μM) [V/s] | Vmax (maximum rate of depolarization) ([1]; 5 μM) [V/s] | Trecovery (recovery time constant of Vmax) ([1]; 5 μM) [ms] | activation at 10 µM [2, 3] [%] | activation at 10 µM [2, 4] [%] | activation at 10 µM [2, 5] [%] | activation at 10 µM [2, 6] [%] | further results
CN(CCOc1ccc(NS(C)(=O)=O)cc1)CCc1ccc(NS(C)(=O)=O)cc1 [Dofetilide, N-[4-[2-[N-methyl-N-[2-(4-methanesulfonamidophenoxy)ethyl]-amino]ethyl]phenyl]methanesulfonamide, reference compound] | – | – | – | – | – | – | – | – | – | – | – | – | – | – | – | APA (amplitude of the action potential) ([1]; 1 μM): 96 mV; APD50 (time of 50% repolarization) ([1]; 1 μM): 218 ms; APD90 (time of 90% repolarization) ([1]; 1 μM): 252 ms; RP (resting potential) ([1]; 1 μM): -76 mV; Vmax (maximum rate of depolarization) ([1]; 1 μM): 212 V/s
Cc1cccc(C)c1OCC(C)N(C)CCc1ccc(N)cc1 (centres unmarked) [Example 9, N-[2-(2,6-Dimethylphenoxy)-1-methylethyl]-N-methyl-2-(4-aminophenyl)ethylamine] | simultaneous prolongation of duration of the action potential (APD) | mexiletine-like inhibition of Vmax | – | – | – | – | – | – | – | – | – | – | – | – | – | activation at 2 µM [2, 3]: 31.8%; activation at 2 µM [2, 4]: 38%; activation at 2 µM [2, 5]: 39.4%; activation at 2 µM [2, 6]: 51.3%; effect on effective refractory period (in words) [2]: simultaneous prolongation of the effective refractory period (ERP); effect on impulse conduction (in words) [2]: significantly prolonged the time of impulse conduction in a frequency-dependent manner; APA (amplitude of the action potential) ([1]; 1 μM): 110 mV; APD50 (time of 50% repolarization) ([1]; 1 μM): 285 ms; APD90 (time of 90% repolarization) ([1]; 1 μM): 342 ms; RP (resting potential) ([1]; 1 μM): -91 mV; Recovery Ampl ([1]; 1 μM): 132.4 V/s; Recovery Ampl/Plateau ([1]; 1 μM): 0.61; Recovery Plateau ([1]; 1 μM): 216.5 V/s; Vmax (maximum rate of depolarization) ([1]; 1 μM): 200 V/s; Trecovery (recovery time constant of Vmax) ([1]; 1 μM): 307.4 ms
Cc1ccccc1OCCN(C)CCc1ccc(NS(C)(=O)=O)cc1.Cl [Example 14, N-[4-[2-[N-Methyl-N-[2-(2-methylphenoxy)ethyl]amino]ethyl]-phenyl]methanesulfonamide hydrochloride] | simultaneous prolongation of duration of the action potential (APD) | mexiletine-like inhibition of Vmax | 114 | 214 | 257 | -90 | 58.7 | 0.25 | 231.8 | 232 | 111.4 | – | – | – | – | –
Cc1cccc(C)c1OC[C@H](C)N(C)CCc1ccc(NS(C)(=O)=O)cc1 [Example 16, (S)-N-[4-[2-[N-Methyl-N-[2-(2,6-dimethylphenoxy)-1-methylethyl]amino]ethyl]pbenyl]methanesulfonamide hydrochloride] | simultaneous prolongation of duration of the action potential (APD) | mexiletine-like inhibition of Vmax | 105 | 195 | 244 | -86 | 75.8 | 0.39 | 196.4 | 199 | 249.5 | 10.7 | 26.9 | 14.3 | 39.7 | effect on effective refractory period (in words) [2]: simultaneous prolongation of the effective refractory period (ERP); effect on impulse conduction (in words) [2]: significantly prolonged the time of impulse conduction in a frequency-dependent manner; difference between the effects of Example 15 and its enantiomers (in words) ([1]; 5 μM): No essential difference could be observed
Cc1ccccc1OCC(C)N(C)CCc1ccc(NS(C)(=O)=O)cc1 (centres unmarked) [Example 18, N-[4-[2-[N-Methyl-N-[2-(2-methylphenoxy)-1-methylethyl]-amino]ethyl]phenyl]methanesulfonamide hydrochloride] | – | – | – | – | – | – | – | – | – | – | – | 9.9 | 18.5 | 14 | 21.7 | –
Cc1ccc(C)c(OCC(C)N(C)CCc2ccc(NS(C)(=O)=O)cc2)c1 (centres unmarked) [Example 20, N-[4-[2-[N-Metbyl-N-[2-(2,5-dimethylphenoxy)-1-methylethyl]amino]ethyl]phenyl]methanesulfonamide hydrochloride] | – | – | – | – | – | – | – | – | – | – | – | 8.4 | 20.3 | 12.6 | 24.5 | –
Cc1cccc(C)c1OCCCN(C)CCc1ccc(NS(C)(=O)=O)cc1 [Example 23, N-[4-[2-[N-Methyl-N-[3-(2,6-dimethylphenoxy)propyl]amino]-ethyl]phenyl]methanesulfonamide hydrochloride] | – | – | – | – | – | – | – | – | – | – | – | 10.8 | 25 | 14.9 | 25 | –
Cc1cccc(C)c1OCCCCN(C)CCc1ccc(NS(C)(=O)=O)cc1.Cl [Example 24, N-[4-[2-[N-Methyl-N-[4-(2,6-dimethylphenoxy)butyl]amino]ethyl]phenyl]methanesulfonamide hydrochloride] | – | – | – | – | – | – | – | – | – | – | – | 13.8 | 69 | 18.4 | 82.9 | effect on effective refractory period (in words) [2]: simultaneous prolongation of the effective refractory period (ERP); effect on impulse conduction (in words) [2]: significantly prolonged the time of impulse conduction in a frequency-dependent manner
Cc1cccc(C)c1OCC(C)N(C)CCc1ccc(NC(=O)c2ccccc2)cc1 (centres unmarked) [Example 25, N-[4-[2-[N-Methyl-N-[2-(2,6-dimethylphenoxy)-1-methylethyl]amino]ethyl]phenyl]benzamide hydrochloride] | – | – | – | – | – | – | – | – | – | – | – | 11.7 | 18.8 | 17 | 18.8 | –
CC(=O)Nc1ccc(CCN(C)C(C)COc2c(C)cccc2C)cc1 (centres unmarked) [Example 26, N-[4-[2-[N-Methyl-N-[2-(2,6-dimethylphenoxy)-1-methylethyl]amino]ethyl]phenyl]acetamide sesquihydrochloride monohydrate] | simultaneous prolongation of duration of the action potential (APD) | mexiletine-like inhibition of Vmax | 105 | 200 | 250 | -80 | 120.9 | 0.62 | 195.9 | 195 | 199 | – | – | – | – | –
CNC(=S)Nc1ccc(CCN(C)C(C)COc2c(C)cccc2C)cc1 (centres unmarked) [Example 27, 1-Methyl-3-[4-[2-[N-methyl-N-[2-(2,6-dimethylphenoxy)-1-methylethyl]amino]ethyl]phenyl]thiourea sesquihydrochloride hemihydrate] | simultaneous prolongation of duration of the action potential (APD) | mexiletine-like inhibition of Vmax | 88 | 210 | 250 | -71 | 78 | 0.53 | 147.9 | 117 | 161.8 | – | – | – | – | –
